Measurements: patent US20250177396A1, “POLO-LIKE KINASE 4 (PLK4) INHIBITORS, PHARMACEUTICAL COMPOSITIONS, METHODS OF PREPARATION AND USES THEREOF” (Repare Therapeutics Inc., priority 2022, published 2025)

Molecular target: T1, PLK4 (Homo sapiens, UniProt O00444)
T1 construct: expressed in transfected cells; host or cells: HEK293 T cells (ATCC CRL-3216)
T1 sequence (O00444 1-970): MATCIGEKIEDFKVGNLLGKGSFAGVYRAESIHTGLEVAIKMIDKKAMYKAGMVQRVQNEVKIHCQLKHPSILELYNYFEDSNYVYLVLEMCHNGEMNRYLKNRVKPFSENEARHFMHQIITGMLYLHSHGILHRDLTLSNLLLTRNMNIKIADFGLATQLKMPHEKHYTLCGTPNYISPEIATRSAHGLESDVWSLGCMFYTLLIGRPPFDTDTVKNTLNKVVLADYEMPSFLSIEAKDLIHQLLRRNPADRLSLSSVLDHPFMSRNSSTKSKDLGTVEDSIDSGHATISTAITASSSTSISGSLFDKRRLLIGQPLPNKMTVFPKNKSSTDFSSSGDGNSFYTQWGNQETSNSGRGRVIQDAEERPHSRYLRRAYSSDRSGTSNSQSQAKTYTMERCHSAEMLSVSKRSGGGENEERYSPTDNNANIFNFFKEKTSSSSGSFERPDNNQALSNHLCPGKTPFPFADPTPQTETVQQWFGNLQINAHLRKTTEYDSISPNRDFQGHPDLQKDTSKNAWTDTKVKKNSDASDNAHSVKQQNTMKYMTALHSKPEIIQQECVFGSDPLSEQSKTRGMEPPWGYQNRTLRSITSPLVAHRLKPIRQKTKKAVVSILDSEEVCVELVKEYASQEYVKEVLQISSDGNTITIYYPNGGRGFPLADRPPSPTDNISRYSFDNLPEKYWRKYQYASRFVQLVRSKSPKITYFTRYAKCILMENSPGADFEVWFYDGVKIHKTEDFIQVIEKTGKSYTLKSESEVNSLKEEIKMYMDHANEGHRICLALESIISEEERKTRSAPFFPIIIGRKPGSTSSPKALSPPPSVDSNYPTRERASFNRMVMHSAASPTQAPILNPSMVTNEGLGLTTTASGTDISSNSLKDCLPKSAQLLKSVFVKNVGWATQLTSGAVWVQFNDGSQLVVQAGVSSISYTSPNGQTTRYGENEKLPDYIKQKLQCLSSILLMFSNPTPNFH
Assay: PLK4 NanoBRET target engagement assay
Type: binding
Conditions: HEK293 T cells transfected with PLK4 NanoLuc fusion vector; K-5 tracer; 2 hrs incubation
In short: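 HEK293T cells transiently expressing PLK4-NanoLuc, plated at 17000 cells/well with K-5 tracer and compound, incubated 2 h at 37 °C/5% CO2. After substrate/inhibitor mix, 610/450 nm emission ratio ×1000 gave mBRET; IC50 from 4-parameter fit.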

Compound | IC50
CN(c1nc(Nc2cc(C3CC3)[nH]n2)c(C2CC2)c(-c2cn3c(n2)COCC3)n1)c1c(F)cc(S(C)(=O)=O)cc1F [Compound 273] | 2 nM
COCCn1cc(-c2nc(N(C)c3c(F)cc(S(C)(=O)=O)cc3F)nc(Nc3cc(C4CC4)[nH]n3)c2C2CC2)c(C)n1 [Compound 276] | 4 nM
COCCn1ncc(-c2nc(N(C)c3c(F)cc(S(C)(=O)=O)cc3F)nc(Nc3cc(C4CC4)[nH]n3)c2C2CC2)c1C [Compound 277] | 3 nM
CN(c1nc(Nc2cc(C(F)(F)F)[nH]n2)c(C2CC2)c(-c2cnn(C)c2)n1)c1c(F)cc(S(C)(=O)=O)cc1F [Compound 278] | 60 nM
CN(C)C(=O)c1c(-c2nc(N(C)c3c(F)cc(S(C)(=O)=O)cc3F)nc(Nc3cc(C4CC4)[nH]n3)c2C2CC2)cnn1C [Compound 280] | 1 nM
Cc1cc(Nc2nc(N(C)c3c(F)cc(S(C)(=O)=O)cc3F)nc(N3CCc4ncn(C)c4C3)c2C2CC2)n[nH]1 [Compound 282] | 6 nM
CN(c1nc(Nc2n[nH]c3c2CCC3)c(C2CC2)c(-c2cnn(C)c2)n1)c1c(F)cc(S(C)(=O)=O)cc1F [Compound 285] | 150 nM
CN(c1nc(Nc2cc(C3CC3)[nH]n2)c(C2CC2)c(-c2cn(C)c(C#N)n2)n1)c1c(F)cc(S(C)(=O)=O)cc1F [Compound 287, 4-(5-cyclopropyl-6-((5-cyclopropyl-1H-pyrazol-3-yl)amino)-2-((2,6-difluoro-4-(methylsulfonyl)phenyl)(methyl)amino)pyrimidin-4-yl)-1-methyl-1H-imidazole-2-carbonitrile] | 6 nM
COc1cc(Nc2nc(N(C)c3c(F)cc(S(C)(=O)=O)cc3F)nc(-c3cnn(C)c3)c2C2CC2)n[nH]1 [Compound 292] | 24 nM
Cc1cc(Nc2nc(N(C)c3c(F)cc(S(C)(=O)=O)cc3F)nc(-c3cn(C)c(C(=O)N(C)C)n3)c2C2CC2)n[nH]1 [Compound 293] | 14 nM
CN(c1nc(Nc2cc(C#N)[nH]n2)c(C2CC2)c(-c2cnn(C)c2)n1)c1c(F)cc(S(C)(=O)=O)cc1F [Compound 295] | 75 nM
CN(c1nc(Nc2cc(C3CC3)[nH]n2)c(C2CC2)c(-c2cnn(CC(C)(C)O)c2)n1)c1c(F)cc(S(C)(=O)=O)cc1F [Compound 297] | 14 nM
CN(c1nc(Nc2cc(C3CC3)[nH]n2)c(C2CC2)c(-c2cn(C)cn2)n1)c1cc(F)c(S(C)(=O)=O)cc1F [Compound 298] | 11 nM
Cc1cc(Nc2nc(N(C)c3c(F)cc(S(C)(=O)=O)cc3F)nc(N3CCO[C@H](C(F)(F)F)C3)c2C2CC2)n[nH]1 [Compound 299] | 180 nM
Cc1cc(Nc2nc(N(C)c3c(F)cc(S(C)(=O)=O)cc3F)nc(N3CCO[C@@H](C(F)(F)F)C3)c2C2CC2)n[nH]1 [Compound 300] | 150 nM
CN(c1nc(Nc2cc(C3CC3)[nH]n2)c(C2CC2)c(-c2cn(C)cn2)n1)c1ccc(S(C)(=O)=O)cc1F [Compound 315] | 23 nM
Cc1cc(Nc2nc(N(C)c3c(F)cc(S(C)(=O)=O)cc3F)nc(-c3cc(C(=O)N(C)C)n(C)n3)c2C2CC2)n[nH]1 [Compound 319] | 5 nM
Cc1cc(Nc2nc(N(C)c3c(F)cc(S(C)(=O)=O)cc3F)nc(-c3cn(C)c(C4(O)CCC4)n3)c2C2CC2)n[nH]1 [Compound 322] | 12 nM
COC1CCc2nc(-c3nc(N(C)c4c(F)cc(S(C)(=O)=O)cc4F)nc(Nc4cc(C)[nH]n4)c3C3CC3)cn2C1 (centres unmarked) [Compound 324] | 3 nM
CN(c1nc(Nc2cc(C3CC3)[nH]n2)c(C2CC2)c(-c2ccnn2C2CC2)n1)c1c(F)cc(S(C)(=O)=O)cc1F [Compound 331] | 14 nM
Cc1cc(Nc2nc(N(C)c3c(F)cc(S(C)(=O)=O)cc3F)nc(N3CCC[C@@H]3C#N)c2C2CC2)n[nH]1 [Compound 332] | 33 nM

Now from value to molecule:

IC50 | Compound
3100 nM | Cc1cc(Nc2nc(N(C)c3c(F)cc(S(C)(=O)=O)cc3F)nc(-c3ncn(C)c3C(=O)N(C)C)c2C2CC2)n[nH]1 [Compound 274]
340 nM | Cc1cc(Nc2nc(N(C)c3c(F)cc(S(C)(=O)=O)cc3F)nc(-c3nn(C)cc3C(N)=O)c2C2CC2)n[nH]1 [Compound 281]
45 nM | Cc1cc(Nc2nc(N(C)c3c(F)cc(S(C)(=O)=O)cc3F)nc(-c3ncn(C)c3C)c2C2CC2)n[nH]1 [Compound 283]
24 nM | Cc1cc(Nc2nc(N(C)c3c(F)cc(S(C)(=O)=O)cc3F)nc(-c3cc4[nH]c(=O)ccn4n3)c2C2CC2)n[nH]1 [Compound 286]
22 nM | Cc1cc(Nc2nc(N(C)c3c(F)cc(S(C)(=O)=O)cc3F)nc(-c3cnn4ccncc34)c2C2CC2)n[nH]1 [Compound 288]
660 nM | Cc1cc(Nc2nc(N(C)c3c(F)cc(S(C)(=O)=O)cc3F)nc(-c3cnn(C)c3C(=O)O)c2C2CC2)n[nH]1 [Compound 289]
9 nM | Cc1cc(Nc2nc(N(C)c3c(F)cc(S(C)(=O)=O)cc3F)nc(-c3cnn(C)c3C(C)(C)O)c2C2CC2)n[nH]1 [Compound 294]
8 nM | Cc1cc(Nc2nc(N(C)c3c(F)cc(S(C)(=O)=O)cc3F)nc(-c3cnc4n3CCOC4)c2C2CC2)n[nH]1 [Compound 302]
8 nM | Cc1cc(Nc2nc(N(C)c3c(F)cc(S(C)(=O)=O)cc3F)nc(-c3cnn(C)c3N3CCCC3=O)c2C2CC2)n[nH]1 [Compound 304]
16 nM | Cc1cc(Nc2nc(N(C)c3c(F)cc(S(C)(=O)=O)cc3F)nc(-c3cnn(C)c3C(O)C(F)(F)F)c2C2CC2)n[nH]1 (centres unmarked) [Compound 305]
94 nM | Cc1cc(Nc2nc(N(C)c3c(F)cc(S(C)(=O)=O)cc3F)nc(-c3cnn(C)c3C(O)(O)C(F)(F)F)c2C2CC2)n[nH]1 [Compound 306]
19 nM | CC(=O)c1c(-c2nc(N(C)c3c(F)cc(S(C)(=O)=O)cc3F)nc(Nc3cc(C)[nH]n3)c2C2CC2)cnn1C [Compound 307]
2 nM | Cc1cc(Nc2nc(N(C)c3c(F)cc(S(C)(=O)=O)cc3F)nc(-c3cnn(C)c3CC#N)c2C2CC2)n[nH]1 [Compound 308]
31 nM | Cc1cc(Nc2nc(N(C)c3c(F)cc(S(C)(=O)=O)cc3F)nc(-c3cnc4ccc(F)cn34)c2C2CC2)n[nH]1 [Compound 310]
14 nM | COC(C)(C)c1c(-c2nc(N(C)c3c(F)cc(S(C)(=O)=O)cc3F)nc(Nc3cc(C)[nH]n3)c2C2CC2)cnn1C [Compound 311]
15 nM | Cc1cc(Nc2nc(N(C)c3c(F)cc(S(C)(=O)=O)cc3F)nc(-c3cnn(C)c3C(C)O)c2C2CC2)n[nH]1 (centres unmarked) [Compound 312]
18 nM | Cc1cc(Nc2nc(N(C)c3c(F)cc(S(C)(=O)=O)cc3F)nc(Nc3cc(C)[nH]n3)c2C2CC2)n[nH]1 [Compound 313]
5 nM | Cc1cc(Nc2nc(N(C)c3c(F)cc(S(C)(=O)=O)cc3F)nc(-c3cn[nH]c3C3CC3)c2C2CC2)n[nH]1 [Compound 316]
27 nM | Cc1cc(Nc2nc(N(C)c3c(F)cc(S(C)(=O)=O)cc3F)nc(-c3cn[nH]c3C#N)c2C2CC2)n[nH]1 [Compound 317]
4 nM | Cc1cc(Nc2nc(N(C)c3c(F)cc(S(C)(=O)=O)cc3F)nc(-c3cnn(C)c3N(C)C)c2C2CC2)n[nH]1 [Compound 320]
11 nM | Cc1cc(Nc2nc(N(C)c3c(F)cc(S(C)(=O)=O)cc3F)nc(-c3cc(C(N)=O)n(C)n3)c2C2CC2)n[nH]1 [Compound 321]
10 nM | Cc1cc(Nc2nc(N(C)c3c(F)cc(S(C)(=O)=O)cc3F)nc(-c3cn(C)c(C(C)(C)O)n3)c2C2CC2)n[nH]1 [Compound 323]
52 nM | Cc1cc(Nc2nc(N(C)c3c(F)cc(S(C)(=O)=O)cc3F)nc(Nc3ccn(C)n3)c2C2CC2)n[nH]1 [Compound 325]
9 nM | Cc1cc(Nc2nc(N(C)c3c(F)cc(S(C)(=O)=O)cc3F)nc(-c3cnn4cccnc34)c2C2CC2)n[nH]1 [Compound 326]
51 nM | Cc1cc(Nc2nc(N(C)c3c(F)cc(S(C)(=O)=O)cc3F)nc(Nc3cnccn3)c2C2CC2)n[nH]1 [Compound 328]
4 nM | Cc1cc(Nc2nc(N(C)c3c(F)cc(S(C)(=O)=O)cc3F)nc(-c3cn(C)nc3CC#N)c2C2CC2)n[nH]1 [Compound 329]
9 nM | Cc1cc(Nc2nc(N(C)c3c(F)cc(S(C)(=O)=O)cc3F)nc(-c3cn(CC(C)(C)O)nc3C)c2C2CC2)n[nH]1 [Compound 330]
11 nM | Cc1cc(Nc2nc(N(C)c3c(F)cc(S(C)(=O)=O)cc3F)nc(-c3cnn(C)c3C(=O)N(C)C3CC3)c2C2CC2)n[nH]1 [Compound 333]
37 nM | Cc1cc(Nc2nc(N(C)c3c(F)cc(S(C)(=O)=O)cc3F)nc(Nc3cnn(C)c3)c2C2CC2)n[nH]1 [Compound 334]
